Measured values published in patent US20100087486A1, “METHODS FOR USING TGF-B RECEPTOR INHIBITORS OR ACTIVIN-LIKE KINASE (ALK) 5 INHIBITORS A-83-01 AND SB-431542 TO TREAT EYE DISEASE AND WOUND HEALING CONDITIONS” (priority 2008, published 2010).
Like-named read-outs stand apart in the source and are kept apart here.

Tests used:
TGF-β2 signaling pathway = assay: Western blotting for α-SMA and fibronectin in TGF-β2-treated fibroblasts; assay type: cell-based, rabbit; conditions: incubated 48 to 72 hours; for band intensity for fibronectin and α-SMA compared with samples not treated with the inhibitors: more pronounced with higher concentration; for fibronectin and α-SMA protein expression induced by TGF-B2: rabbit subconjunctival fibroblasts, 2 ng/ml TGF-β2
Method: (§1) Sample fibroblasts were obtained from New Zealand white rabbit eyes. The fibroblasts were derived from the subconjunctival tissues isolated from the eyes of the subjects. The third to fifth passages of cells were maintained in 25 cm^2 flasks using 3 ml of medium composed of Eagle's minimal essential medium, 10% fetal bovine serum, 5% calf serum, essential and nonessential aminoacids, and antibiotics. When the cells reached confluence, they were trypsinized and passaged.
(§2) The fibroblast cultures in 6-well plates were pre-treated with 2 ml of medium including ALK-5 inhibitors at various concentrations, 0.03, 0.1, […], 1.0, 3.0, and 10.0 μM, for one hour, and were additionally treated with
(§3) 2 ng/ml of TGF-β2 (R&D Systems, Minneapolis, Minn.) for up to 72 hours.
To test for fibronectin and α-SMA protein expression after the treatment with the respective inhibitors, rabbit subconjunctival fibroblasts, as prepared in samples 1-16, were incubated for 48 to 72 hours. […] Band intensity for both proteins was reduced in A-83-01 and SB-431542 treated samples compared with the bands of those samples not treated with the inhibitors. The reduction in protein levels is more pronounced with a higher concentration of the inhibitors. The blots were also probed for β-actin to control for equal protein loading.
Proteins in the cell lysates (20 μg/lane) were resolved on a 10% sodium dodecyl sulfate (SDS)-polyacrylamide gel. The proteins were transferred to nitrocellulose. After blocking with 1% bovine serum albumin, the membranes were probed with monoclonal mouse anti-α-SMA (1:9,000) followed by HRP-conjugated goat anti-mouse IgG (1:150,000; Jackson), or monoclonal mouse anti-fibronectin (1:1,000) followed by HRP-conjugated goat anti-mouse IgG (1:10,000). Signals were detected by enhanced chemiluminescense.

[1] = test system: cultured rabbit subconjunctival fibroblasts; assay: TGF-β2 activity related to wound healing in cultured fibroblasts (overall conclusion); assay type: cell-based; conditions: for cell toxicity: cell cultures prepared with either inhibitor; for TGF-β2 activity related to wound healing: cultured rabbit subconjunctival fibroblasts
Method: as §1, §2, §3
Thus, these inhibitors may be used as ocular anti-scarring agents, especially for glaucoma filtration surgery.

rabbit fibroblasts = assay: Fibroblast morphology by phase contrast microscopy; conditions: 5 ng/ml TGF-β2; for TGF-β2-induced morphologic change (myofibroblast-like appearance): sample 6 (A-83-01 3.0 μM), sample 14 (SB-431542 10.0 μM)
Method: In another example, rabbit fibroblasts were prepared as in samples 6, 14, 15, and 16 except that 5 ng/ml of TGF-β2 was added to the samples instead of 2 ng/ml.

TGF-β2-induced proteins [2] = assay: Immunocytofluorescence microscopy for CTGF, fibronectin and α-SMA; conditions: for staining intensity of TGF-β2-induced proteins (CTGF, α-SMA, fibronectin): samples 5-6 (A-83-01 1.0, 3.0 μM) and 13-14 (SB-431542 3.0, 10.0 μM), 2 ng/ml TGF-β2, 72 hours
Method: (§4) In another example, subconjunctival fibroblasts were cultured on 8-well chamber slides. The samples were prepared as in samples 5-6 and 13-16 and incubated for 72 hours. After inhibitor treatment, the fibroblast cultures were fixed with 4% paraformaldehyde or with ice-cold methanol for Alexa Fluor or FITC staining, respectively. After permeabilization, the cells cultures were incubated with polyclonal goat anti-CTGF (1:50, Santa Cruz) followed by Alexa Fluor donkey anti-goat IgG (10 μg/mL, Invitrogen), monoclonal mouse anti-fibronectin (10 μg/mL, Invitrogen) or monoclonal mouse anti-α-SMA (1:400, Sigma) followed by FITC goat anti-mouse IgG (1:100, Jackson ImmunoResearch). The cell cultures were mounted with aqueous mounting media with DAPI and viewed by fluoresence microscopy.
Nuclei were stained with DAPI (blue).

TGF-β2-induced proteins [3] = test system: TGF-β2-induced proteins
Method: as §4
Nuclei were stained with DAPI (blue).

Cc1cccc(-c2nn(C(=S)Nc3ccccc3)cc2-c2ccnc3ccccc23)n1 [A-83-01] was tested, and the “band intensity for fibronectin and α-SMA compared with samples not treated with the inhibitors” value (TGF-β2 signaling pathway) was “reduced”, the “fibronectin and α-SMA protein expression induced by TGF-B2” value (TGF-β2 signaling pathway) was “effectively inhibited” and the cell toxicity [1] was “No obvious cell toxicity”. The “TGF-β2 activity related to wound healing” value [1] was “effectively block”, the cell death (rabbit fibroblasts; sample 6 (3.0 μM), sample 14 (10.0 μM)) was “No obvious cell death” and the “TGF-β2-induced morphologic change (myofibroblast-like appearance)” value (rabbit fibroblasts) was “seemed to be averted”. For the same compound, the “staining intensity of TGF-β2-induced proteins (CTGF, α-SMA, fibronectin)” value (TGF-β2-induced proteins [2]) was “greatly reduced” and the cell death (TGF-β2-induced proteins [2]; samples 5-6 and 13-14, 72 hours) was “No obvious cell death”.

With NC(=O)c1ccc(-c2nc(-c3ccc4c(c3)OCO4)c(-c3ccccn3)[nH]2)cc1 [SB-431542] the “band intensity for fibronectin and α-SMA compared with samples not treated with the inhibitors” value (TGF-β2 signaling pathway) was “reduced”, the “fibronectin and α-SMA protein expression induced by TGF-B2” value (TGF-β2 signaling pathway) was “effectively inhibited” and the cell toxicity [1] was “No obvious cell toxicity”. The “TGF-β2 activity related to wound healing” value [1] was “effectively block”, the cell death (TGF-β2-induced proteins [3]) was “No obvious cell death” and the “TGF-β2-induced morphologic change (myofibroblast-like appearance)” value (rabbit fibroblasts) was “seemed to be averted”. The “staining intensity of TGF-β2-induced proteins (CTGF, α-SMA, fibronectin)” value (TGF-β2-induced proteins [2]) was “greatly reduced”.
